Marks after values point to notes of the source that are not given here.
Experiments:
rhesus monkeys = assay: Rhesus monkey conflict test; format: in vivo; details: cumulative dosing
Source text: Conflict protocol: The conflict procedure is a well established operant conditioning approach to evaluate anxiolytic-like effects of test compounds. In this procedure, positively-reinforced behavior is suppressed by response-contingent administration of a noxious stimulus (i.e., mild electric shock). Compounds with anxiolytic effects in humans (e.g., benzodiazepines) characteristically increase rates of responding that are suppressed by shock and are referred to as anti-conflict or anxiolytic-like effects. […] In addition to anxiolytic-like effects, conflict procedures also provide an assessment of the ability of the animal to perform operant lever pressing. This is typically assessed by including lever pressing in the absence of the noxious stimulus. Most anxiolytic compounds will decrease rates of responding in the absence of shock at doses higher than those that induce anxiolytic-like effects. The effects contributing to anxiolytic-induced decreases in non-suppressed responding are not well understood, but likely consist of a combination of motor co-ordination deficits and sedative effects.
Adult rhesus monkeys were used in these studies (n=1-4). Weights of the monkeys ranged from 6.2 to 10.5 kg. The animals had been previously trained using the conflict procedure. Animals were maintained at 85-95% of their free-feeding weights by manipulation of food intake. Monkeys were individually housed with water available ad libitum, and maintained on a 12 hour lights-on/12 hour lights-off cycle (lights on at 0600 a.m.). Monkeys received Harlan Teklad diet (15% Primate Diet) as well as supplemental feeding (fruits, vegetables, and commercially available primate treats) daily. They were also given toys and video enrichment when not in an experimental session. Each animal was prepared prior to the study with a chronic indwelling venous catheter for drug delivery. A polyvinyl chloride catheter was implanted in a jugular, femoral or brachial vein under isoflurane anesthesia and aseptic conditions. The proximal end of the catheter terminated above the right atrium, and the distal end was passed subcutaneously to exit in the midscapular region. Experimental sessions began 5-7 days following surgery. Catheters had been implanted approximately 3 months to 1 year prior to the initiation of the study. During experimental sessions, monkeys were seated in primate chairs that were placed in ventilated sound-attenuating chambers. A single response lever was mounted on the wall of the chamber in front of the monkey. Each press of a lever produced an audible click and was recorded as a response via electromechanical equipment, a computer interface, and PC with specialized software. Food pellets could be delivered into a tray located next to the lever. Mild electric shock could be delivered to the bottom of the feet via brass electrodes that were fitted to shoes. Red and green lights mounted above the levers could be illuminated to serve as visual stimuli.
Monkeys were trained under a multiple schedule of food reinforcement adapted from Spealman (1979). A daily session consisted of 4 cycles, each preceded by a 10-min time out period in which all lights in the chamber were off and responding had no programmed consequences. Each cycle consisted of two components, component 1 and 2. Component 1 was signaled by red stimulus lights and consisted of an 18-response schedule (FR18) of food pellet delivery (i.e., the animal receives a food pellet following 18 responses). Component 2, signaled by green stimulus lights, followed immediately and consisted of the FR18 schedule of food delivery combined with a FR20 schedule of foot shock delivery (1.5-3.0 mA, adjusted for each monkey based on individual performance, 0.25 sec duration). Delivery of a food pellet (FR18 schedule) was followed by a 10 sec time out in which responses had no programmed consequences. […]

129SVEV mice = assay: Stress-Induced Hyperthermia (SIH) test; format: in vivo; details: mouse, 60 min before test
Procedure: Stress-Induced Hyperthermia (SIH) protocol: The stress-induced hyperthermia (SIH) test is based on the principle that animal's have a natural hyperthermic response to stress. The test involves taking two measures of rectal temperature in the same animal within a 10 minute interval. The two sequential rectal temperature measurements reveal the animal's basal temperature (T1) and 10 minutes later, an enhanced body temperature (T2) due to the stress of the first rectal temperature. The difference T2-T1 (delta T) is the SIH response. When anxiolytic drugs are administered prior to recording temperature, they reduce the stress response.
Adult male 129SVEV mice (6 weeks old) from Taconic Laboratories (Germantown, N.Y.) were used in these studies. Upon receipt, mice were assigned unique identification numbers (tail marked) and were group housed in OptiMICE ventilated racks. All animals remained group housed during the remainder of the study unless indicated otherwise. All mice were acclimated to the colony room for at least two weeks prior to testing and were subsequently tested at 8 weeks of age. During the period of acclimation, mice were examined on a regular basis, handled, and weighed to assure adequate healtH, D and suitability. Mice were maintained on a 12/12 light/dark cycle with the light on at 7:00 a.m. The room temperature was maintained between 20 and 23° C. with a relative humidity maintained between 30% and 70%. Chow and water were provided ad libitum for the duration of the study. Animals were not disturbed between test days.
On the day prior to testing, the mice were brought to the experimental room one hour before scheduled lights out and singly housed overnight with food and water ad libitum. On the morning of the experiment, mice were orally dosed via gavage with vehicle, CDP (10 mg/kg) or compounds of the present invention (3, 10 or 30 mg/kg) and placed back in the cages. One hour after oral gavage, each animal was removed from the holding cage and held in a supine position and rectal temperature was measured. The rectal probe was attached to a PhysiTemp digital thermometer (Fisher Scientific) which provides temperature readings at 0.1° C. accuracy. The probe remained inside the animal for approximately 5 seconds or until body temperature reached stability. This temperature was recorded as the baseline rectal temperature (T1). The animal was immediately placed back to the holding cage and after a 10-min interval the 2nd rectal temperature (T2) was taken using the same procedure as in measuring T1. Before each insertion, the rectal probe was cleaned with an alcohol pad and lubricated with sterile K-Y jelly.
Chlordiazepoxide (10 mg/kg) was used as the positive control. Compounds of the present invention, vehicle (45% hydroxypropyl beta-cyclodextrin) and chlordiazepoxide were administered orally to all groups (n=10 […] per group) 60 minutes prior to behavioral testing. All data were analyzed using an analysis of variance (ANOVA) followed by Fisher's PLSD post hoc test. An effect was considered significance if p<0.05. Statistical outliers above or below 2 standard deviations from the mean in any of the temperature measures were removed from the final analysis.

| Structure (SMILES) | Non-Suppressed Response Rates Mean ± S.E.M. (rhesus monkeys; 0.1 mg/kg IV) [Responses/Second] | Suppressed Response Rates Mean ± S.E.M. (rhesus monkeys; 0.1 mg/kg IV) [Responses/Second] | Non-Suppressed Response Rates Mean ± S.E.M. (rhesus monkeys; 0.3 mg/kg IV) [Responses/Second] | Suppressed Response Rates Mean ± S.E.M. (rhesus monkeys; 0.3 mg/kg IV) [Responses/Second] | Non-Suppressed Response Rates Mean ± S.E.M. (rhesus monkeys; 1 mg/kg IV) [Responses/Second] | Suppressed Response Rates Mean ± S.E.M. (rhesus monkeys; 1 mg/kg IV) [Responses/Second] | Non-Suppressed Response Rates Mean ± S.E.M. (rhesus monkeys; 3 mg/kg IV) [Responses/Second] | Suppressed Response Rates Mean ± S.E.M. (rhesus monkeys; 3 mg/kg IV) | Change in Temperature (T2 − T1) Mean ± S.E.M. (129SVEV mice; 3 mg/kg PO) [°C] | Change in Temperature (T2 − T1) Mean ± S.E.M. (129SVEV mice; 10 mg/kg PO) [°C] | Change in Temperature (T2 − T1) Mean ± S.E.M. (129SVEV mice; 30 mg/kg PO) [°C] | Non-Suppressed Response Rates Mean ± S.E.M. (rhesus monkeys; 1.8 mg/kg IV) [Responses/Second] | Suppressed Response Rates Mean ± S.E.M. (rhesus monkeys; 1.8 mg/kg IV) | Non-Suppressed Response Rates Mean ± S.E.M. (rhesus monkeys; 5.6 mg/kg IV) [Responses/Second] | Suppressed Response Rates Mean ± S.E.M. (rhesus monkeys; 5.6 mg/kg IV) |
| --- | --- | --- | --- | --- | --- | --- | --- | --- | --- | --- | --- | --- | --- | --- | --- |
| Clc1ccc(-c2nc3cccnn3c2Cn2cncn2)cc1 [Compound 32, 3-((1H-1,2,4-triazol-1-yl)methyl)-2-(4-chlorophenyl)imidazo[1,2-b]pyridazine] | 2.50 ± 0.29 | 0.03 ± 0.01 | 2.58 ± 0.44 | 0.24 ± 0.17 | 1.82 ± 0.67 | 1.1 ± 0.67 | 1.77 ± 0.64 | 1.19 ± 0.36 Responses/Second | 0.26 ± 0.04 | 0.28 ± 0.10 | 0.37 ± 0.06 | – | – | – | – |
| NC(=O)c1ncn(Cc2c(-c3ccc(Cl)cc3)nc3ccccn23)n1 [Compound 72, 1-((2-(4-chlorophenyl)imidazo[1,2-a]pyridin-3-yl)methyl)-1H-1,2,4-triazole-3-carboxamide] | – | – | – | – | – | – | – | – | 0.21 ± 0.11 | 0.32 ± 0.05 | 0.44 ± 0.10 | – | – | – | – |
| Cn1ncnc1Cc1c(-c2ccc(F)cc2)nc2ccc(F)cn12 [Compound 200, 6-fluoro-2-(4-fluorophenyl)-3-((1-methyl-1H-1,2,4-triazol-5-yl)methyl)imidazo[1,2-a]pyridine] | – | – | 3.2 | 0.02 | 2.9 | 0.02 | 3.1 | 1.2* Responses/Second | −0.13 ± 0.11 | −0.50 ± 0.15 | −0.66 ± 0.13 | 2.4 | 1.4* Responses/Second | 3.3 | 1.9* Responses/Second |
| Clc1ccc(-c2nc3ccccn3c2Cc2ncn[nH]2)cc1 [Compound 211, 3-((1H-1,2,4-triazol-5-yl)methyl)-2-(4-chlorophenyl)imidazo[1,2-a]pyridine] | – | – | – | – | – | – | – | – | 0.37 ± 0.08 | 0.33 ± 0.09 | 0.37 ± 0.09 | – | – | – | – |
| CNC(=O)c1nccn1Cc1c(-c2ccc(Cl)cc2)nc2ccccn12 [Compound 77, 1-((2-(4-chlorophenyl)H-imidazo[1,2-a]pyridin-3-yl)methyl)-N-methyl-1H-imidazole-2-carboxamide] | – | – | – | – | – | – | – | – | 0.37 ± 0.15 | 0.55 ± 0.11 | 0.55 ± 0.12 | – | – | – | – |
| Cc1ccn(Cc2c(-c3ccc(Cl)cc3)nc3ccccn23)c(=O)n1 [Compound 105, 1-((2-(4-chlorophenyl)imidazo[1,2-a]pyridin-3-yl)methyl)-4-methylpyrimidin-2(1H)-one] | 2.68 ± 0.37 | 0.02 ± 0.01 | 2.68 ± 0.39 | 0.47 ± 0.44 | 2.78 ± 0.36 | 0.79 ± 0.45 | 1.02 ± 0.57 | 0.46 ± 0.32 Responses/Second | – | – | – | – | – | – | – |

From patent publication US8497278B2, “Imidazo[1,2-a]pyridine compounds” (priority 2008, dated 2013)
